Consider 13 compounds from patent publication US12673975B2, “Cyclic peptide, cell scaffold material, cell separating material, and medium” (FUJIFILM Corporation, priority 2019, dated 2026).

The target in one data set is human integrin αvβ5 (Homo sapiens, UniProt P06756+P18084). In words: Evaluation of integrin binding property (surface plasmon resonance, Biacore 3000, immobilized cyclic peptide). The method in brief:
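Human αvβ5 (30-1,000 nM) flowed for 10 min at 25 °C over immobilized cyclic peptide in 20 mM HEPES, 150 mM NaCl, 5 mM MgCl2, pH 7.4, followed by 30 min running buffer and 0.5 M EDTA regeneration. Dissociation constant from peptide minus unimmobilized channel, scored into standard grades.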

Data set [1] can be described thus: Evaluation of molecule stability (alkali treatment, residual rate by LC/MS). The class given is physicochemical. The conditions noted are these: for Performance evaluation: Stability (residual rate of cyclic peptide after alkali treatment): 500 μM peptide aqueous solution plus equivalent of 1 M sodium hydroxide, 15° C., 3 hours, LC/MS peak area; for Stability (molecule stability, residual rate of the cyclic peptide rank): alkali treatment, residual rate by LC/MS. The method in brief:
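Stability read as percent of summed LC/MS peak area remaining versus untreated peptide (C18, 45 °C, 10 mM ammonium formate pH 3, ESI positive/negative). Treatment: 500 μM peptide in water plus an equivalent of 1 M NaOH, 15 °C for 3 hours.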

The mark [2] stands for this setting: SPR, 25° C., HEPES buffer with 5 mM magnesium chloride, integrin 30-1,000 nM, read-out: Performance evaluation: Binding activity (dissociation constant between the cyclic peptide and human integrin αvβ5).
The mark [3] stands for this setting: surface plasmon resonance, immobilized cyclic peptide, human integrin αvβ5, read-out: Binding activity (integrin binding property, dissociation constant rank).

Read-outs that look alike come from different tables or passages of the source. Starred links: 1 amine or outer side, 2 acyl side, 3 side chain; linkers in the order of their positions; H or OH if unused. Positions of bridges follow the written chain, without caps; N, C: chain ends. Non-standard residues stand in square brackets, D forms with d. Residues, ends and D or L forms follow the SMILES beside them. hCys = N[C@@H](CCS)C(=O)O; Dab = NCC[C@H](N)C(=O)O; Dap = NC[C@H](N)C(=O)O; X1 = O=C(C[*:2])[*:1]; X2 = O=C(C[*:1])[*:2]

Sequence of human integrin αvβ5 (P06756 31-1048): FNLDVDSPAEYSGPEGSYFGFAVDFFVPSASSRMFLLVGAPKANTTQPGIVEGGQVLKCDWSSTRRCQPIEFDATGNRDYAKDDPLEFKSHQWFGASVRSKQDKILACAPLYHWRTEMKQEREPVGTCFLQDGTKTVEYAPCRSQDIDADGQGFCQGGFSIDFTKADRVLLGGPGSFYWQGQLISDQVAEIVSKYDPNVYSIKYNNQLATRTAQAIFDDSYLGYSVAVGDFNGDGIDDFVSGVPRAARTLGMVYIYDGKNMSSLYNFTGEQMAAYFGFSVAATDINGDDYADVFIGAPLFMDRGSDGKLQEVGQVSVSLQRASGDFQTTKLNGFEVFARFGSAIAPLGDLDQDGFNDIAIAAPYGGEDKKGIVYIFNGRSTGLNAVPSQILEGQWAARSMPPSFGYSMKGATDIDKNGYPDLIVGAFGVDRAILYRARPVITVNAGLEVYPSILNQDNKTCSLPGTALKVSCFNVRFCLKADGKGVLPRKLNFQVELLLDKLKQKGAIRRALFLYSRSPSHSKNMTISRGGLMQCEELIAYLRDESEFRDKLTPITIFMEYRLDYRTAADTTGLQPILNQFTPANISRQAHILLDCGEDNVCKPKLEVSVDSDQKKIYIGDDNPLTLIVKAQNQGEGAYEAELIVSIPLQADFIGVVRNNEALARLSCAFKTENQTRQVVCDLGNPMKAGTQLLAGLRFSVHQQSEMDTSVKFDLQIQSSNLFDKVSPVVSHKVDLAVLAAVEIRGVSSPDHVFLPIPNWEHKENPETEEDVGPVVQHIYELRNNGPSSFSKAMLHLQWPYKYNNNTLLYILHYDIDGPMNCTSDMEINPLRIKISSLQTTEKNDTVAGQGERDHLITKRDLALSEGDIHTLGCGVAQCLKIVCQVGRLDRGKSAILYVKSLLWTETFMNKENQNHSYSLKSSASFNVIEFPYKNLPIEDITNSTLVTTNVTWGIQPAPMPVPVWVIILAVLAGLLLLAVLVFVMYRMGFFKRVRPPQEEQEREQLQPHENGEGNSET
Sequence of human integrin αvβ5 (P18084 24-799): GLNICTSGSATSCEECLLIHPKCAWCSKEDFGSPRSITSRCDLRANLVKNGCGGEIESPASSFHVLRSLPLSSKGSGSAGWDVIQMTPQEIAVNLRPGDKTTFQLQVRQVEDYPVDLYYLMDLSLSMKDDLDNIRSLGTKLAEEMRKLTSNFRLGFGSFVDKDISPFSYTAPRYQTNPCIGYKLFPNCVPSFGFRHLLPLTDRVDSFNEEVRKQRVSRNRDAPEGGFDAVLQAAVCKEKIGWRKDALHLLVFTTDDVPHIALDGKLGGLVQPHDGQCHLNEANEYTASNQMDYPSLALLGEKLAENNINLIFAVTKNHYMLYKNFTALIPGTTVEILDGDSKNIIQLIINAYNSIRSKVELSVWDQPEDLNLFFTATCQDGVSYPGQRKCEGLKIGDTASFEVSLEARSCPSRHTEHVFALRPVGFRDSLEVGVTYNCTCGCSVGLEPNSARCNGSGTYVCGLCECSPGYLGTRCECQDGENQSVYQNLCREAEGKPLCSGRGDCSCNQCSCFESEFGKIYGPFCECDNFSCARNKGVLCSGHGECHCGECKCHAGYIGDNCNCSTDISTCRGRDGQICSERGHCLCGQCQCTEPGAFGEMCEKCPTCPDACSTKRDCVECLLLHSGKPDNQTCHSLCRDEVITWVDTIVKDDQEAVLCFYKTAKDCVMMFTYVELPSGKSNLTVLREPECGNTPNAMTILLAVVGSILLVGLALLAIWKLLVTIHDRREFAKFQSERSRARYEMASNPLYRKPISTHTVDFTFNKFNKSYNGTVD

On to `CC(C)[C@@H]1NC(=O)[C@@H](NC(=O)[C@H](CCCCN)NC(=O)[C@H](CCCCN)NC(=O)[C@@H](N)CCCCN)CCSCC(=O)NCC[C@@H](C(=O)N[C@@H](C)C(=O)O)NC(=O)[C@H](CCCNC(=N)N)NC(=O)[C@H](Cc2ccccc2)NC(=O)[C@H](CC(N)=O)NC(=O)[C@H](CC(=O)O)NC(=O)CNC(=O)[C@H](CCCNC(=N)N)NC(=O)[C@@H]2CCCN2C1=O` [Cyclic peptide 21, KKK-(Hcy)-VPRGDNFR(Dab(acetyl))A] (H-KKK[hCys]VPRGDNFR[Dab]A-OH; linker 4-13 via X2), for which the Kd at human integrin αvβ5 (setting [2]) is below 50 nM. The “Performance evaluation: Stability (residual rate of cyclic peptide after alkali treatment)” value in data set [1] was “A (The residual rate of the cyclic peptide is 70% or more.)”.

For `CC[C@H](C)[C@@H]1NC(=O)[C@@H](NC(=O)CNC(=O)[C@H](CCCCN)NC(=O)[C@H](CCCCN)NC(=O)[C@@H](N)CCCCN)CCCCNC(=O)CSC[C@@H](C(=O)N[C@@H](C)C(=O)O)NC(=O)[C@H](CCCNC(=N)N)NC(=O)[C@H](Cc2ccccc2)NC(=O)[C@H]([C@@H](C)O)NC(=O)[C@H](CC(=O)O)NC(=O)CNC(=O)[C@H](CCCNC(=N)N)NC(=O)[C@@H]2CCCN2C1=O` [Cyclic peptide 140, KKKG(Lys(acetyl))IPRGDTFR(C)A] (H-KKKGKIPRGDTFRCA-OH; linker 5-14 via X1), at human integrin αvβ5 (setting [3]), the Kd lay in the range of 50 to 100 nM. In addition, the “Stability (molecule stability, residual rate of the cyclic peptide rank)” value in data set [1] was “C (The residual rate of the cyclic peptide is 30% or more and less than 50%.)”.

With `C[C@H](NC(=O)[C@H](CCCCN)NC(=O)[C@H](CCCCN)NC(=O)[C@@H](N)CCCCN)C(=O)N[C@H]1CCSCC(=O)NCC[C@@H](C(=O)NCC(=O)O)NC(=O)[C@H](CCCNC(=N)N)NC(=O)[C@H](Cc2ccc(O)cc2)NC(=O)[C@H](CC(N)=O)NC(=O)[C@H](CC(=O)O)NC(=O)CNC(=O)[C@H](CCCNC(=N)N)NC(=O)[C@@H]2CCCN2C(=O)[C@H](CCC(=O)O)NC1=O` [Cyclic peptide 40, KKKA-(Hcy)-EPRGDNYR(Dab(acetyl))G] (H-KKKA[hCys]EPRGDNYR[Dab]G-OH; linker 5-14 via X2), the Kd at human integrin αvβ5 (setting [2]) was in the range of 50 to 100 nM. Besides, the “Performance evaluation: Stability (residual rate of cyclic peptide after alkali treatment)” value in data set [1] is “A (The residual rate of the cyclic peptide is 70% or more.)”.

For the compound `CC[C@H](C)[C@@H]1NC(=O)[C@@H](NC(=O)CNC(=O)[C@H](CCCCN)NC(=O)[C@H](CCCCN)NC(=O)[C@@H](N)CCCCN)CCSCC(=O)NCC[C@@H](C(=O)NCC(=O)O)NC(=O)[C@H](C)NC(=O)[C@H](Cc2ccccc2)NC(=O)[C@H](CO)NC(=O)[C@H](CC(=O)O)NC(=O)CNC(=O)[C@H](CCCNC(=N)N)NC(=O)[C@@H]2CCCN2C1=O` [Cyclic peptide 95, KKKG-(Hcy)-IPRGDSFA(Dab(acetyl))G] (H-KKKG[hCys]IPRGDSFA[Dab]G-OH; linker 5-14 via X2), the Kd on human integrin αvβ5 (setting [2]) is below 50 nM. Besides, the “Performance evaluation: Stability (residual rate of cyclic peptide after alkali treatment)” value in data set [1] is “A (The residual rate of the cyclic peptide is 70% or more.)”.

Turning to `CC(C)[C@@H]1NC(=O)[C@@H](NC(=O)[C@H](C)NC(=O)[C@H](CCCCN)NC(=O)[C@H](CCCCN)NC(=O)[C@H](CCCCN)NC(=O)[C@H](CCCCN)NC(=O)[C@H](CCCCN)NC(=O)[C@@H](N)CCCCN)CCSCC(=O)NCC[C@@H](C(=O)N[C@@H](C)C(=O)O)NC(=O)[C@H](C)NC(=O)[C@H](Cc2ccccc2)NC(=O)[C@H]([C@@H](C)O)NC(=O)[C@H](CC(=O)O)NC(=O)CNC(=O)[C@H](CCCNC(=N)N)NC(=O)[C@@H]2CCCN2C1=O` [Cyclic peptide 112, KKKKKKA-(Hcy)-VPRGDTFA(Dab(acetyl))A] (H-KKKKKKA[hCys]VPRGDTFA[Dab]A-OH; linker 8-17 via X2), the Kd on human integrin αvβ5 (setting [3]) is below 50 nM. Also, the “Stability (molecule stability, residual rate of the cyclic peptide rank)” value in data set [1] is recorded as “A (The residual rate of the cyclic peptide is 70% or more.)”.

Consider `N=C(N)NCCC[C@@H]1NC(=O)[C@H](Cc2ccc(O)cc2)NC(=O)[C@H](CC(N)=O)NC(=O)[C@H](CC(=O)O)NC(=O)CNC(=O)[C@H](CCCNC(=N)N)NC(=O)[C@@H]2CCCN2C(=O)[C@H](CCC(=O)O)NC(=O)[C@@H](NC(=O)[C@H](CCCCN)NC(=O)[C@H](CCCCN)NC(=O)[C@@H](N)CCCCN)CNC(=O)CSCC[C@@H](C(N)=O)NC1=O` [Cyclic peptide 52, KKK(Dap(acetyl))EPRGDNYR-(Hcy)] (H-KKK[Dap]EPRGDNYR[hCys]-NH2; linker 4-13 via X1), for which the Kd on human integrin αvβ5 (setting [2]) lay within 50 to 100 nM. The “Performance evaluation: Stability (residual rate of cyclic peptide after alkali treatment)” value in data set [1] is “B (The residual rate of the cyclic peptide is 50% or more and less than 70%.)”.

For `CC[C@H](C)[C@@H]1NC(=O)[C@@H](NC(=O)[C@H](C)NC(=O)[C@H](CCCCN)NC(=O)[C@H](CCCCN)NC(=O)[C@@H](N)CCCCN)CCSCC(=O)NCC[C@@H](C(=O)N[C@@H](C)C(=O)O)NC(=O)[C@H](CCCNC(=N)N)NC(=O)[C@H](Cc2ccccc2)NC(=O)[C@H]([C@@H](C)O)NC(=O)[C@H](CC(=O)O)NC(=O)CNC(=O)[C@H](CCCNC(=N)N)NC(=O)[C@H]([C@@H](C)O)NC1=O` [Cyclic peptide 76, KKKA-(Hcy)-ITRGDTFR(Dab(acetyl))A] (H-KKKA[hCys]ITRGDTFR[Dab]A-OH; linker 5-14 via X2), the Kd at human integrin αvβ5 (setting [2]) is 50 to 100 nM. Besides, the “Performance evaluation: Stability (residual rate of cyclic peptide after alkali treatment)” value in data set [1] is “A (The residual rate of the cyclic peptide is 70% or more.)”.

In the case of `CC(C)C[C@@H]1NC(=O)[C@@H](NC(=O)[C@H](CCCCN)NC(=O)[C@H](CCCCN)NC(=O)[C@@H](N)CCCCN)CCSCC(=O)NCC[C@@H](C(=O)O)NC(=O)[C@H](C)NC(=O)[C@H](Cc2ccccc2)NC(=O)[C@H]([C@@H](C)O)NC(=O)[C@H](CC(=O)O)NC(=O)CNC(=O)[C@H](CCCNC(=N)N)NC(=O)[C@@H]2CCCN2C1=O` [Cyclic peptide 146, KKK-(Hcy)-LPRGDTFA(Dab(acetyl))] (H-KKK[hCys]LPRGDTFA[Dab]-OH; linker 4-13 via X2), the Kd at human integrin αvβ5 (setting [3]) was below 50 nM. The “Stability (molecule stability, residual rate of the cyclic peptide rank)” value in data set [1] was “A (The residual rate of the cyclic peptide is 70% or more.)”.

As to `C[C@H](NC(=O)[C@H](CCCCN)NC(=O)[C@H](CCCCN)NC(=O)[C@@H](N)CCCCN)C(=O)N[C@H]1CCSCC(=O)NCC[C@@H](C(=O)O)NC(=O)[C@H](C)NC(=O)[C@H](Cc2ccccc2)NC(=O)[C@H]([C@@H](C)O)NC(=O)[C@H](CC(=O)O)NC(=O)CNC(=O)[C@H](CCCNC(=N)N)NC(=O)[C@@H]2CCCN2C(=O)[C@H]([C@@H](C)O)NC1=O` [Cyclic peptide 158, KKKA-(Hcy)-TPRGDTFA(Dab(acetyl))] (H-KKKA[hCys]TPRGDTFA[Dab]-OH; linker 5-14 via X2), the Kd at human integrin αvβ5 (setting [3]) was below 50 nM. For the same compound, in data set [1], the “Stability (molecule stability, residual rate of the cyclic peptide rank)” value is “A (The residual rate of the cyclic peptide is 70% or more.)”.

For the compound `CC[C@H](C)[C@@H]1NC(=O)[C@@H](NC(=O)[C@H](C)NC(=O)[C@H](CCCCN)NC(=O)[C@H](CCCCN)NC(=O)[C@@H](N)CCCCN)CCSCC(=O)NCCCC[C@@H](C(=O)N[C@@H](C)C(=O)O)NC(=O)[C@H](C)NC(=O)[C@H](Cc2ccccc2)NC(=O)[C@H](CO)NC(=O)[C@H](CC(=O)O)NC(=O)CNC(=O)[C@H](CCCNC(=N)N)NC(=O)[C@@H]2CCCN2C1=O` [Cyclic peptide 123, KKKA-(Hcy)-IPRGDSFA(Lys(acetyl))A] (H-KKKA[hCys]IPRGDSFAKA-OH; linker 5-14 via X2), the Kd on human integrin αvβ5 (setting [3]) was below 50 nM. The “Stability (molecule stability, residual rate of the cyclic peptide rank)” value in data set [1] is “A (The residual rate of the cyclic peptide is 70% or more.)”.

Consider `CC(C)[C@@H]1NC(=O)[C@@H](NC(=O)[C@H](CCCCN)NC(=O)[C@H](CCCCN)NC(=O)[C@@H](N)CCCCN)CCNC(=O)CSC[C@@H](C(=O)O)NC(=O)[C@H](Cc2ccccc2)NC(=O)[C@H](CC(N)=O)NC(=O)[C@H](CC(=O)O)NC(=O)CNC(=O)[C@H](CCCNC(=N)N)NC(=O)[C@@H]2CCCN2C1=O` [Cyclic peptide 143, KKK(Dab(acetyl))VPRGDNF(C)] (H-KKK[Dab]VPRGDNFC-OH; linker 4-12 via X1), for which, at human integrin αvβ5 (setting [3]), the Kd was below 50 nM. Also, the “Stability (molecule stability, residual rate of the cyclic peptide rank)” value in data set [1] is “C (The residual rate of the cyclic peptide is 30% or more and less than 50%.)”.

Consider `C[C@H](NC(=O)[C@H](CCCCN)NC(=O)[C@H](CCCCN)NC(=O)[C@@H](N)CCCCN)C(=O)N[C@H]1CCSCC(=O)NCC[C@@H](C(=O)O)NC(=O)[C@H](CCCNC(=N)N)NC(=O)[C@H](Cc2ccc(O)cc2)NC(=O)[C@H](CC(N)=O)NC(=O)[C@H](CC(=O)O)NC(=O)CNC(=O)[C@H](CCCNC(=N)N)NC(=O)[C@@H]2CCCN2C(=O)[C@H](CCC(=O)O)NC1=O` [Cyclic peptide 45, KKKA-(Hcy)-EPRGDNYR(Dab(acetyl))] (H-KKKA[hCys]EPRGDNYR[Dab]-OH; linker 5-14 via X2), for which, on human integrin αvβ5 (setting [2]), the Kd is 50 to 100 nM. In addition, the “Performance evaluation: Stability (residual rate of cyclic peptide after alkali treatment)” value in data set [1] was “A (The residual rate of the cyclic peptide is 70% or more.)”.

In the case of `CC[C@H](C)[C@@H]1NC(=O)[C@@H](NC(=O)[C@H](C)NC(=O)[C@H](CCCCN)NC(=O)[C@H](CCCCN)NC(=O)[C@@H](N)CCCCN)CCSCC(=O)NCC[C@@H](C(=O)NCC(=O)O)NC(=O)[C@H](C)NC(=O)[C@H](Cc2ccccc2)NC(=O)[C@H](CO)NC(=O)[C@H](CC(=O)O)NC(=O)CNC(=O)[C@H](CCCNC(=N)N)NC(=O)[C@@H]2CCCN2C1=O` [Cyclic peptide 93, KKKA-(Hcy)-IPRGDSFA(Dab(acetyl))G] (H-KKKA[hCys]IPRGDSFA[Dab]G-OH; linker 5-14 via X2), the Kd on human integrin αvβ5 (setting [2]) was below 50 nM. Also, in data set [1], the “Performance evaluation: Stability (residual rate of cyclic peptide after alkali treatment)” value is “A (The residual rate of the cyclic peptide is 70% or more.)”.
